Laboratory results taken from patent US8367328B2, “Method for synthesizing DNA” (Takara Bio Inc., priority 1998, dated 2013).

Assays:
Pfu DNA Polymerase II = biological target: T1, Pfu DNA Polymerase II (Pyrococcus furiosus, UniProt P81409+P81412); assay: PCR with Pfu DNA Polymerase II in the presence of acidic substances (λDNA template); format: biochemical; settings: 0.5 kb fragment; 100 pg λDNA, primers λ1/λ2, 25 cycles 98°C 5 s–66°C 15 s; amount added 10 ng
T1 construct: made in house; host or cells: Escherichia coli JM109/pFU1001 (FERM BP-5579)
T1 sequence (P81409 1-1263): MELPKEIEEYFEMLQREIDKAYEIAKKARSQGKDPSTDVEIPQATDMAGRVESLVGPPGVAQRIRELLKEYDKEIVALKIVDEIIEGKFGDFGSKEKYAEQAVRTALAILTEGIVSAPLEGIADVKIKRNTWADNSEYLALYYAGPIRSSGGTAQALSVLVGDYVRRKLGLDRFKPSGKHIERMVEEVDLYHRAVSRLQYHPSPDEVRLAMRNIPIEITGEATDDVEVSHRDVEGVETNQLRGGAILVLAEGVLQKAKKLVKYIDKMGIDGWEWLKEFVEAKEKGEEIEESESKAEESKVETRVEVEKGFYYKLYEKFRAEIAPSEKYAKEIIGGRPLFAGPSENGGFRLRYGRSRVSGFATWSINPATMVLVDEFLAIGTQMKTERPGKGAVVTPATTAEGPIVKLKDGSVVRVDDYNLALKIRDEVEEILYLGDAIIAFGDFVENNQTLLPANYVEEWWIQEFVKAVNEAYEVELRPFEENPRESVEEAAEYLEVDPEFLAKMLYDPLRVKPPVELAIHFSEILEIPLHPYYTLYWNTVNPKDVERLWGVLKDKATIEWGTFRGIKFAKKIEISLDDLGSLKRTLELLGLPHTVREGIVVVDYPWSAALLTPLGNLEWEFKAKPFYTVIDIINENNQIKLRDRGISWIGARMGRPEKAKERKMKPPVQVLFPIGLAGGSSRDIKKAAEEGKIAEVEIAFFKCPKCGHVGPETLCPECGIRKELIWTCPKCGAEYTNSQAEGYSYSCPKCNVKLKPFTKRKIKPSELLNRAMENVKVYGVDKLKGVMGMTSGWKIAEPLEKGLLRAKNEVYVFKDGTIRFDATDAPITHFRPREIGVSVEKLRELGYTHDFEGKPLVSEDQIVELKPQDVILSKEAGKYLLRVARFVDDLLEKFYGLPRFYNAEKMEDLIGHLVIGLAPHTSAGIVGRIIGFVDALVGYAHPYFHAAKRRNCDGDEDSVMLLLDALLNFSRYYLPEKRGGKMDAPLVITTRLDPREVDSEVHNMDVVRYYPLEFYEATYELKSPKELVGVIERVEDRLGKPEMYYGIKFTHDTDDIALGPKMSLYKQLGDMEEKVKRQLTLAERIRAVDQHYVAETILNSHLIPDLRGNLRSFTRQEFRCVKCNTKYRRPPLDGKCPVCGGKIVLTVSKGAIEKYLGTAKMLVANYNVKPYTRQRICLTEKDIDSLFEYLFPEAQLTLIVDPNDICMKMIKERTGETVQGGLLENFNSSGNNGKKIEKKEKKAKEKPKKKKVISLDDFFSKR
T1 sequence (P81412 1-613): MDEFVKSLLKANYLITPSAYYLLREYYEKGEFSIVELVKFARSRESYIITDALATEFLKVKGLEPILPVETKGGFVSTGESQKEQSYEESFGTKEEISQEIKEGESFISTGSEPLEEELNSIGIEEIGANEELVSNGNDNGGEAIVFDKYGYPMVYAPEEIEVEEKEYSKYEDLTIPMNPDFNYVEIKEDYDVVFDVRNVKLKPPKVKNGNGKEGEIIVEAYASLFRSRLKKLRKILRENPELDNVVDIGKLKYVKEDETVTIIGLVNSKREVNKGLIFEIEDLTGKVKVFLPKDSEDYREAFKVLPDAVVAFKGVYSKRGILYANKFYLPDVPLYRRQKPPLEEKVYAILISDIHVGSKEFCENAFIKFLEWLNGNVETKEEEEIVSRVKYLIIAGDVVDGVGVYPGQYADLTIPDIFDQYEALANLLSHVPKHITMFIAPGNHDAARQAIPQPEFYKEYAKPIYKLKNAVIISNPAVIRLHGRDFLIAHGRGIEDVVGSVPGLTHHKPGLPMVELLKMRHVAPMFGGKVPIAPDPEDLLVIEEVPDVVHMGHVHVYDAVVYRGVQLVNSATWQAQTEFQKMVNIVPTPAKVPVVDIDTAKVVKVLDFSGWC
Method: A reaction mixture comprising λDNA as a template, primers λ1 and λ3 as a primer pair, and Pfu DNA Polymerase II as DNA polymerase was prepared, and PCR was carried out. The composition of the reaction mixture is as follows.
10 mM Tris-hydrochloric acid (pH 9.2), 75 mM potassium chloride, 6 mM magnesium chloride, 0.4 mM each of dATP, dCTP, dGTP and dTTP, 0.01% BSA, 1.25 U of Pfu DNA Polymerase II, 500 pg of λDNA, and 5 pmol each of primers λ1 and λ3 (a final volume being 25 μl). […]
Using the sulfated-fucose-containing Polysaccharide-F obtained in Example 6 described above, dextran sulfate powder (manufactured by Onco), or sodium alginate (100 to 150 centipoises, manufactured by Wako Pure Chemicals), the effects of these acidic substances on the activity of Pfu DNA Polymerase II were examined. A reaction mixture comprising λDNA as a template, primers λ1 and λ2 as a primer pair, and Pfu DNA Polymerase II as DNA polymerase was prepared, and PCR was carried out. The composition of the reaction mixture is as follows.
(§1) 10 mM Tris-hydrochloric acid, pH 9.2, 75 mM potassium chloride, 6 mM magnesium chloride, 0.4 mM each of dATP, dCTP, dGTP and dTTP, 0.01% BSA, 1.25 U of Pfu DNA Polymerase II, 100 pg of λDNA, and 5 pmol each of primers λ1 and λ2 (a final volume being 25 μl). Further, 10 ng of the sulfated-fucose-containing polysaccharide-F, 10 ng of dextran sulfate powder, or 1 μg of sodium alginate was respectively added to the above reaction mixture.
(§2) The reaction in 25 cycles was carried out for each of these reaction mixtures, wherein one cycle of reaction comprises a process consisting of 98° C., 5 seconds—66° C., 15 seconds. Thereafter, 5 μl of the resulting reaction mixture was subjected to electrophoresis on 1% agarose gel containing ethidium bromide in an amount of 0.00005%, whereby an amplified fragment was confirmed.
Further, studies were conducted on the effects of the sulfated-fucose-containing polysaccharide-F obtained in Example 6 described above, the sulfated-fucose-containing polysaccharide-U obtained in Example 7 described above, or sodium polyglutamate (manufactured by Sigma) as an acidic substance. A reaction mixture for PCR was prepared in the same manner as described above except for changing the amount of template λDNA to 500 pg and the primer pairs to primers λ1 and λ3. Five nanograms of the sulfated-fucose-containing polysaccharide-F, 5 ng, 10 ng, 20 ng or 30 ng each of the sulfated-fucose-containing polysaccharide-U, or 250 ng, 500 ng, 750 ng or 1000 ng each of sodium polyglutamate was respectively added to the above reaction mixture.
as §2, with “reaction” for “reaction in 25 cycles”, “in 30 cycles,” for “for each of these reaction mixtures,”, “After the termination of the reaction,” for “Thereafter,”
Using the sulfated-fucose-containing polysaccharide-F obtained in Example 6 described above, the effects on the activity of Pfu DNA Polymerase II were examined. A reaction mixture comprising λDNA as a template, primers λ1 and λ2 as a primer pair, and Pfu DNA Polymerase II as DNA polymerase was prepared, and PCR was carried out. The composition of the reaction mixture is as follows.
as §1, with “500” for “100”, “polysaccharide-F” for “polysaccharide-F, 10 ng of dextran sulfate powder, or 1 μg of sodium alginate”
The reaction in 30 cycles was carried out for each of these reaction mixtures, wherein one cycle of reaction comprises a process consisting of 98° C., 5 seconds—66° C., 15 seconds. […]

KOD DNA Polymerase = biological target: T2, KOD DNA Polymerase (Thermococcus kodakarensis, UniProt P77933, DEL407-766/DEL852-1388); assay: PCR with KOD DNA Polymerase (α-type) in the presence of acidic substances; format: biochemical, Pyrococcus sp.; settings: 10 kb fragment, 100 pg λDNA, 30 cycles 98°C 5 s–68°C 3 min
T2 construct: purchased TOYOBO CO., LTD
Method: (1) Using sodium alginate, sodium hyaluronate (manufactured by Seikagaku Kogyo), or κ carrageenan (manufactured by Sigma), the effects of these acidic substances on α-type DNA polymerase were examined. A reaction mixture comprising λDNA as a template, primers λ1 and λ8 as a primer pair, and KOD DNA Polymerase (manufactured by TOYOBO CO., LTD.) as DNA polymerase was prepared, and PCR was carried out. The composition of the reaction mixture is as follows. Composition of Reaction Mixture: KOD DNA Polymerase Buffer I (manufactured by TOYOBO CO., LTD.) 0.2 mM each of dATP, dCTP, dGTP and dTTP, 0.625 U of KOD DNA Polymerase, 100 pg of λDNA, and 5 pmol each of primers λ1 and λ8 (a final volume being 25 μl). Further, 1 μg or 2.5 μg of sodium alginate, 0.1 μg or 0.5 μg of sodium hyaluronate, or 0.1 μg or 0.25 μg of κ carrageenan was respectively added to the above reaction mixture.
as §2, with “30” for “25”, “seconds—68°” for “seconds—66°”, “3 minutes.” for “15 seconds.”
(2) The effects on α-type DNA polymerase were also examined in the same manner as in item (1) above for sodium alginate, κ carrageenan, sodium heparan sulfate (manufactured by Sigma), sodium dermatan sulfate (manufactured by Sigma), potassium polyvinyl sulfate (manufactured by nacalaitesque) or sodium polystyrenesulfonate (two kinds: average molecular weights of 5,400 and 35,000, all manufactured by nacalaitesque). A reaction mixture comprising λDNA as a template, primers λ1 and λ8 as a primer pair, and KOD DNA Polymerase as DNA polymerase was prepared, and PCR was carried out. The composition of the reaction mixture is as follows. Composition of Reaction Mixture: KOD DNA Polymerase Buffer II (manufactured by TOYOBO CO., LTD.) 0.2 mM each of dATP, dCTP, dGTP and dTTP, 1.25 U of KOD DNA Polymerase, 100 pg of λDNA, and 10 pmol each of primers λ1 and λ8 (a final volume being 50 μl). Further, 2.5 μg or 5 μg of sodium alginate, 0.25 μg or 0.5 μg of κ carrageenan, or 125 ng, 250 ng or 375 ng of sodium dermatan sulfate, 500 ng of sodium heparan sulfate, 10 ng of potassium polyvinyl sulfate, 2.5 ng or 5 ng of sodium polystyrenesulfonate (average molecular weight: 5,400), or 5 ng of sodium polystyrenesulfonate (average molecular weight: 35,000) was respectively added to the above reaction mixture.

[1] = Buffer I, 0.625 U KOD, primers λ1/λ8, 25 μl, amount added 0.1 μg

T2 sequence (P77933 other isoform, or with tags, fused parts or gaps DEL407-766/DEL852-1388): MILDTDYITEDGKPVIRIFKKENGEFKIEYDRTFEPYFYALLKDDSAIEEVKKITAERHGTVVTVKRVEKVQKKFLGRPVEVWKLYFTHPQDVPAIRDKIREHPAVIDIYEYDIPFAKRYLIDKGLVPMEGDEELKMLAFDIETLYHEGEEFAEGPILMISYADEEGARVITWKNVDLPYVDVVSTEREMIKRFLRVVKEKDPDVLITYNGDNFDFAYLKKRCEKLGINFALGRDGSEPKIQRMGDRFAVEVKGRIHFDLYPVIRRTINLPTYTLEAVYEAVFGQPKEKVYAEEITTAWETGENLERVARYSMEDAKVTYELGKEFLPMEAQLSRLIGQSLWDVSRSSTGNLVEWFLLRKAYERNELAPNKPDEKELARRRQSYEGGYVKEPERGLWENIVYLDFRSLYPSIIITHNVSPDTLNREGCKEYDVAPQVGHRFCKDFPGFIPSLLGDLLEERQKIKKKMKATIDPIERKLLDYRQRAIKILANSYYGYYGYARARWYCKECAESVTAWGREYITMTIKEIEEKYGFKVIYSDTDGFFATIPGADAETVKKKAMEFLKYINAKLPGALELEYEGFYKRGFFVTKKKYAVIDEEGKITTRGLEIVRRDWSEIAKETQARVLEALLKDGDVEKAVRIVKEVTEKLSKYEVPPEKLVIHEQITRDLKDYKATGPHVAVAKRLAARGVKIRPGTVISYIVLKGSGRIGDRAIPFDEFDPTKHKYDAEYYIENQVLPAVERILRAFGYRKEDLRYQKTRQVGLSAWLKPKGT

dextran sulfate [Dextran Sulfate Powder]
Amplification Results (Pfu DNA Polymerase II): + (Amplification being observed)

sodium dermatan sulfate
Amplification Results (KOD DNA Polymerase; Buffer II, 1.25 U KOD, primers λ1/λ8, 50 μl, amount added 125 ng): + (Amplification being observed) | Amplification Results (KOD DNA Polymerase; Buffer II, 1.25 U KOD, primers λ1/λ8, 50 μl, amount added 250 ng): + (Amplification being observed) | Amplification Results (KOD DNA Polymerase; Buffer II, 1.25 U KOD, primers λ1/λ8, 50 μl, amount added 375 ng): + (Amplification being observed)

sodium heparan sulfate
Amplification Results (KOD DNA Polymerase; Buffer II, 1.25 U KOD, primers λ1/λ8, 50 μl, amount added 500 ng): + (Amplification being observed)

sodium hyaluronate
Amplification Results (KOD DNA Polymerase; [1]): + (Amplification being observed) | Amplification Results (KOD DNA Polymerase; Buffer I, 0.625 U KOD, primers λ1/λ8, 25 μl, amount added 0.5 μg): + (Amplification being observed)

κ carrageenan
Amplification Results (KOD DNA Polymerase; [1]): + (Amplification being observed) | Amplification Results (KOD DNA Polymerase; Buffer I, 0.625 U KOD, primers λ1/λ8, 25 μl, amount added 0.25 μg): + (Amplification being observed) | Amplification Results (KOD DNA Polymerase; Buffer II, 1.25 U KOD, primers λ1/λ8, 50 μl, amount added 0.25 μg): ++ (Intensive amplification being observed) | Amplification Results (KOD DNA Polymerase; Buffer II, 1.25 U KOD, primers λ1/λ8, 50 μl, amount added 0.5 μg): ++ (Intensive amplification being observed)
